Assay [1] concerns MDA-MB-231 breast cancer cells. Briefly: Western blot of proliferation and apoptosis proteins. In kind it is cell-based, human. The following applies: 24 h. On the procedure: (§1) To extend these observations to MDA-MB-231 breast cancer cells, cells were treated with DJ4 at 2.5, 5.0, and 10 µM for 24 h. ROCK1/2 catalyzes the inactivating phosphorylation of the myosin phosphatase subunit MYPT1 at Thr696 and Thr853 [16]. To confirm the targeting of ROCK1/2 by DJ4 in MDA-MB-231 cells, we probed for phosphorylation of MYPT1.
In contrast, expression of proliferating cell nuclear antigen (PCNA) protein was decreased at all the concentrations (Figure 4C). PCNA is highly expressed during active DNA synthesis (S phase).
(§2) For protein expression studies, MDA-MB-231 cells were treated with indicated concentrations of DJ4 for 24 h. Additionally, A549 cells were treated for 24 h and 48 h. Cell lysate preparation, protein estimation, and Western blot analysis was performed as per the procedure reported earlier. The blots were probed with cleaved caspase 7 (#9492, Cell Signaling, Danvers, MA, USA), GAPDH (#97166, Cell Signaling, Danvers, MA, USA), β-Actin (#3700, Cell Signaling, Danvers, MA, USA), pErk (#5726, Cell Signaling, Danvers, MA, USA), p21 ^WAF1/CIP1 (#60480, Cell Signaling, Danvers, MA, USA), cyclinD3 (#2936, Cell Signaling, Danvers, MA, USA), CDK4 (#23972, Cell Signaling, Danvers, MA, USA), cleaved PARP (#32563, Cell Signaling, Danvers, MA, USA), pan Erk (#23887, Cell Signaling, Danvers, MA, USA), pMYPT1 (Thr853, # SAB4503944, Millipore, Inc., Burlington, MA, USA) and PCNA (#sc-56, Santa Cruz Biotechnology, Inc., Dallas, TX, USA) antibodies.
(In general: In western blotting, separated proteins are transferred to a membrane and probed.)

For the next assay, the target named is T1, CDK9 (Homo sapiens, UniProt P50750).
T1 construct: purchased DiscoverX Corporation (Lead Hunter Discovery Services, KINOMEscan)
T1 sequence (P50750 whole entry): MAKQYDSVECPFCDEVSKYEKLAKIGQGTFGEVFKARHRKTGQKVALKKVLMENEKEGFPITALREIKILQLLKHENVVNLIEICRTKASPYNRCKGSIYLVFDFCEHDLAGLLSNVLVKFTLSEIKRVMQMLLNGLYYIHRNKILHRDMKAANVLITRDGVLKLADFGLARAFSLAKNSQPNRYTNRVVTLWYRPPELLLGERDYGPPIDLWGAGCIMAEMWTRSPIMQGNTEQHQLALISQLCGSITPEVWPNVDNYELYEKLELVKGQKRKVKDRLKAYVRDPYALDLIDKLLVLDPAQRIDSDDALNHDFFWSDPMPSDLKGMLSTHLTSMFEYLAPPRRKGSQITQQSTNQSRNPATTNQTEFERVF
Briefly: KINOMEscan competition binding assay. Conditions: CDK9, 10 µM. The text has this: (§3) To examine specificity of DJ4 to different human kinases, we performed a KINOMEscan profiling assay (DiscoverX, Fremont, CA, USA). The KINOMEscan assay consists of a panel of more than 480 kinases of different classes (TK/TKL/STE/CK1/AGC/CAMK/CMGC/others), including clinically relevant mutants, atypical kinases, lipid, and pathogen kinases. […] However, we also recognized the limitations of DJ4 that preclude its clinical development and the need for further optimization of the DJ4 chemotype.
(§4) The KINOMEscan®, in vitro competition binding assay, was performed by Lead Hunter Discovery Services (DiscoverX Corporation, Fremont, CA, USA) to determine the kinase specificity of DJ4, a novel kinase inhibitor [19, 44]. The KINOMEscan® panel consists of more than 480 kinases, including clinically relevant mutants, lipid, atypical, and pathogen kinases, plus a growing panel of activation-state specific assays. The primary screen was performed using a single concentration of 10 µM, and the results for DJ4 binding interactions are reported as percent of control (%Ctrl). The %Ctrl is calculated as follows: [(DJ4 signal-positive control signal)/(negative control DMSO signal-positive control signal)] x […]. The human kinome tree annotation for DJ4 is plotted with Reaction Biology’s Kinase Mapper and KinMap web interface tool http://kinhub.org/kinmap (accessed on 09 January 2023).

A further assay has as its target T2, FLT3 (Homo sapiens, UniProt P36888).
T2 construct: purchased DiscoverX Corporation (Lead Hunter Discovery Services, KINOMEscan)
Briefly: KINOMEscan competition binding assay. Conditions: FLT3, 10 µM.
Text: as §3, §4

The target in the next assay is T3, CDK14 (Homo sapiens, UniProt O94921).
T3 construct: purchased DiscoverX Corporation (Lead Hunter Discovery Services, KINOMEscan)
T3 sequence (O94921 whole entry): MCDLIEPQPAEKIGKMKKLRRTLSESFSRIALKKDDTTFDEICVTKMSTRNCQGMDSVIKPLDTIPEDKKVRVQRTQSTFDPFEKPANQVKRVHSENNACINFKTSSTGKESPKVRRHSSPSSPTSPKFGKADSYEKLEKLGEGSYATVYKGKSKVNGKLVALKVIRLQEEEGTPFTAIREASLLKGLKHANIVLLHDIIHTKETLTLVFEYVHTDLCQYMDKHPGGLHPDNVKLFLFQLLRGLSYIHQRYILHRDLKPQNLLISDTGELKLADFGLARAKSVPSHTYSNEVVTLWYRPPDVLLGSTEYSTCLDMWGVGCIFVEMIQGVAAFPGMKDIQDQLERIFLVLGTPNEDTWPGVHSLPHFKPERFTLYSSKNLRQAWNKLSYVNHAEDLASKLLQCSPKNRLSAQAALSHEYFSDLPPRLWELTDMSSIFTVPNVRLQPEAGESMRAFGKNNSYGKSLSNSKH
Briefly: KINOMEscan competition binding assay. Conditions: CDK14, 10 µM.
Text: as §3, §4

The target of the next assay is T4, MRCK2 (Homo sapiens, UniProt Q9Y5S2).
T4 construct: purchased DiscoverX Corporation (Lead Hunter Discovery Services, KINOMEscan)
Briefly: KINOMEscan competition binding assay. Conditions: MRCK2, 10 µM.
Text: as §3, §4

A further assay addresses T5, MRCK1 (Homo sapiens, UniProt Q5VT25).
T5 construct: purchased DiscoverX Corporation (Lead Hunter Discovery Services, KINOMEscan)
Briefly: KINOMEscan competition binding assay. Conditions: MRCK1, 10 µM.
Text: as §3, §4

The target of another assay is T6, CDK7 (Homo sapiens, UniProt P50613).
T6 construct: purchased DiscoverX Corporation (Lead Hunter Discovery Services, KINOMEscan)
T6 sequence (P50613 whole entry): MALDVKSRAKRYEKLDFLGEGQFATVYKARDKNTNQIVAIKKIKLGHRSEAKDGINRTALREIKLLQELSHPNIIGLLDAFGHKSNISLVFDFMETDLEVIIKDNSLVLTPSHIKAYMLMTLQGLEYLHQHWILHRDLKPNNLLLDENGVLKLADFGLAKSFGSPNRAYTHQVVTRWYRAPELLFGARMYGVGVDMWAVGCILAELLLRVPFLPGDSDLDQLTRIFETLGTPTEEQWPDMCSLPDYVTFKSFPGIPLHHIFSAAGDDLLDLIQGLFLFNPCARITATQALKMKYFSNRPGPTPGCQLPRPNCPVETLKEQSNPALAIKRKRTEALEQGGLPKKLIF
Briefly: KINOMEscan competition binding assay. Conditions: CDK7, 10 µM.
Text: as §3, §4

The target in a further assay is T7, CDK8 (Homo sapiens, UniProt P49336).
T7 construct: purchased DiscoverX Corporation (Lead Hunter Discovery Services, KINOMEscan)
T7 sequence (P49336 whole entry): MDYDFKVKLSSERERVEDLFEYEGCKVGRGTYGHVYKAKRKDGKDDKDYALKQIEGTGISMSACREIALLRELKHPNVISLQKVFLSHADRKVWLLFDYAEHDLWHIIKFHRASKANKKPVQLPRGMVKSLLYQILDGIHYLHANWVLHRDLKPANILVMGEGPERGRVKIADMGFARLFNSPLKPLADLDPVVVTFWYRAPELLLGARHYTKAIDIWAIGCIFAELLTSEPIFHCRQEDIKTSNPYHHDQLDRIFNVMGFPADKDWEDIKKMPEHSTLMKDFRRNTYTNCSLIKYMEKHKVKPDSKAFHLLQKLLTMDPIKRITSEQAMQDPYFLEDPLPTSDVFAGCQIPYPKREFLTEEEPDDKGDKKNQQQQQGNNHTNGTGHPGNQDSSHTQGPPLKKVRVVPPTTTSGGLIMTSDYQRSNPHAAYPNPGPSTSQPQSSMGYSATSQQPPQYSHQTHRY
Briefly: KINOMEscan competition binding assay. The following applies: CDK8, 10 µM.
Text: as §3, §4

Another assay has as its target T8, KIT (Homo sapiens, UniProt P10721).
T8 construct: purchased DiscoverX Corporation (Lead Hunter Discovery Services, KINOMEscan)
Briefly: KINOMEscan competition binding assay.
Text: as §3, §4

In assay [2] the test system is EGFR mutants (G718C, G719S, L858R, etc.). Briefly: KINOMEscan competition binding assay. Conditions: 10 µM. Set-up: species or system human.
Text: as §3
(§5) Figure 5 The kinase selectivity profile for DJ4 assessed using KINOMEscan high-throughput assay. […] The red spots (ROCK/MRCK/CDK/FLT3/KIT) indicate kinases with high specificity to DJ4. (C,D) The % inhibition profile of DJ4 with wild-type (WT) and its clinically relevant kinase mutants of RET (rearranged during transfection) tyrosine kinase (C) and EGFR (epidermal growth factor receptor) protein kinase (D).
(§6) The KINOMEscan®, in vitro competition binding assay, was performed by Lead Hunter Discovery Services (DiscoverX Corporation, Fremont, CA, USA) to determine the kinase specificity of DJ4, a novel kinase inhibitor [19, 44]. […] The %Ctrl is calculated as follows: [(DJ4 signal-positive control signal)/(negative control DMSO signal-positive control signal)] x 00. […]

The subject of assay [3] is RET tyrosine kinase mutants (V804L/V804/M918T). Briefly: KINOMEscan competition binding assay. The arrangement: species or system human. The following applies: 10 µM.
Text: as §3, §5, §6

The test system of assay [4] is pMYPT1 (Thr696 and Thr853) in MDA-MB-231 cells. Briefly: Western blot of MYPT1 phosphorylation (ROCK1/2 targeting). In kind it is cell-based, human. The following applies: MDA-MB-231, 2.5, 5.0 and 10 µM, 24 h. The procedure: as §1, §2
Another assay deals with CDK11. Briefly: KINOMEscan competition binding assay. The arrangement: species or system human. The following applies: CDK11, 10 µM.
Text: as §3, §4

Setting [5] is: MDA-MB-231, all concentrations (2.5, 5.0, 10 µM).

SMILES strings stand for the structures.

T8 sequence (P10721 26-976): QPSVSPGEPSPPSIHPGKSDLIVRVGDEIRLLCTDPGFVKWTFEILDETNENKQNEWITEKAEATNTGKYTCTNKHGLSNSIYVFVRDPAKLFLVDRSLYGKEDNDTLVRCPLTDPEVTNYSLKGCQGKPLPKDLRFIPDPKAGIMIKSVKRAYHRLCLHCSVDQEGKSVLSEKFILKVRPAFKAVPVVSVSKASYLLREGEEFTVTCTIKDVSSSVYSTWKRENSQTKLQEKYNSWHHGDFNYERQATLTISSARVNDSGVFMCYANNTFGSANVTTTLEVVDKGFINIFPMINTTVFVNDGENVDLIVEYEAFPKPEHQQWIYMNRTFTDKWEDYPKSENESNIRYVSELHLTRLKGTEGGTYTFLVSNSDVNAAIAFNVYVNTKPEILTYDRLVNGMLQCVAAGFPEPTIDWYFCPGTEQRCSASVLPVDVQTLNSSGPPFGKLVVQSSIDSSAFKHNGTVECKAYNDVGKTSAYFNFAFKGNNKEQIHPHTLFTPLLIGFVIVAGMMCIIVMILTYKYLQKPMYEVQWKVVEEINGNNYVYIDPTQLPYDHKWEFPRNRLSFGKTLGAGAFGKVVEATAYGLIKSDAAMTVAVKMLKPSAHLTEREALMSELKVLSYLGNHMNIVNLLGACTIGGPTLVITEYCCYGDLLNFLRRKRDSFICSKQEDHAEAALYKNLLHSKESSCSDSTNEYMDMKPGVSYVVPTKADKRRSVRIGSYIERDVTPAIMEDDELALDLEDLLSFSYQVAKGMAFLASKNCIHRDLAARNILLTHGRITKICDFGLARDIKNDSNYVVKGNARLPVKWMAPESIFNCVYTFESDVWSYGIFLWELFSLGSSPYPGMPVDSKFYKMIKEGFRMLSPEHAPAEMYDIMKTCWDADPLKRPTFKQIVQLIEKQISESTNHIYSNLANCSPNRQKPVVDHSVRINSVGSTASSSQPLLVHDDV
T2 sequence (P36888 27-993): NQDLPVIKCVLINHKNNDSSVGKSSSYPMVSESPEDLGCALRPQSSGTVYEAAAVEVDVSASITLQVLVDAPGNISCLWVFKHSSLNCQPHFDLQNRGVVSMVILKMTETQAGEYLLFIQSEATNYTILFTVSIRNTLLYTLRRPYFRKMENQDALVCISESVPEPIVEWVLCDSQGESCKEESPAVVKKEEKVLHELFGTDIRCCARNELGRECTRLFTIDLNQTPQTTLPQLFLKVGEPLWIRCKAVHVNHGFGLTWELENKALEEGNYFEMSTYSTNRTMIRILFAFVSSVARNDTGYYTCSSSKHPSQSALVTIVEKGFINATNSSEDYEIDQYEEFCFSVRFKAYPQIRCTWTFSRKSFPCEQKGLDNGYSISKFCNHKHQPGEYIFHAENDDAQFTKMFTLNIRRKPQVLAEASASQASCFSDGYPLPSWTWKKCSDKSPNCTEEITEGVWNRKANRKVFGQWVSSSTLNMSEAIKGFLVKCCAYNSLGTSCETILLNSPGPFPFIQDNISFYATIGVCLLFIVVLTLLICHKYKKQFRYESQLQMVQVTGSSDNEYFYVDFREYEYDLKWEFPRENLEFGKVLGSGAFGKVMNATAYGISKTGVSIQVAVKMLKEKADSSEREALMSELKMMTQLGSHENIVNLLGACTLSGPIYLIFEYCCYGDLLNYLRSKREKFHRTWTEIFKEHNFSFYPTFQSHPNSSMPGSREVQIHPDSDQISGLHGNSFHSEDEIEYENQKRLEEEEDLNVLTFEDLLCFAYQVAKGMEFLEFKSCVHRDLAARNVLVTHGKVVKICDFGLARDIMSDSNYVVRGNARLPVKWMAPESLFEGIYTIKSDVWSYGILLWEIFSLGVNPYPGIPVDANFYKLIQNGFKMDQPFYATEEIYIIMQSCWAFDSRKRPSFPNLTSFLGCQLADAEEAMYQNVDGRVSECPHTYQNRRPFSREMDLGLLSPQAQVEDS

In general, inhibition refers to the relative decrease from the control value, in per cent. Regarding `O=C1N/C(=N\CCc2ccccc2)S/C1=C/c1c[nH]c2ncccc12` [DJ4], the “expression of pErk” value in assay [1] (MDA-MB-231, 2.5, 5.0 and 10 µM) is recorded as “significantly increased”. In [1] (setting [5]), the “cleaved PARP” value is given as “corresponding increases”. In assay [1] (setting [5]), the “expression of PCNA” value is “decreased”. Besides, the “expression of cleaved caspase 7” value in [1] (setting [5]) is “significantly increased”. Moreover, the inhibition at 10 µM on CDK9, on FLT3, on CDK14, at MRCK2, at MRCK1 and at CDK7 was above 98% throughout. Further, the inhibition at 10 µM on CDK8 and on KIT was above 98% each time. In addition, in assay [2], the “inhibition of EGFR mutants relative to wild-type form” value was “differential inhibition”. Besides, the “binding of RET mutants relative to wild-type” value in assay [3] is “stronger binding”. The “pMYPT1 (Thr696 and Thr853)” value in assay [4] is “concentration-dependent decrease”. Moreover, the “inhibition (KINOMEscan)” value with CDK11 is “more than 98%”.

The record behind these values is article PMC10458458, “Characterization of Anticancer Effects of the Analogs of DJ4, a Novel Selective Inhibitor of ROCK and MRCK Kinases” (Pharmaceuticals, 2023).
